Experimental data published in article PMC9233935 (Journal of medicinal chemistry, 2022).
pIC50: −log10 of the molar value. ≈ marks a conversion by molar mass, not a printed value.

Key:
S. aureus ATTC 25923 [1] = test system: S. aureus ATTC 25923
[2] = test system: gyrA hypomorph (gyrA-FDAS-TetON-1); format: cell-based; conditions: fold-hypersensitivity
Mtb gyrase = Mtb gyrase (Mycobacterium tuberculosis, UniProt P9WG45+P9WG47); assay: biochemical; format: biochemical
S. aureus ATTC 25923 [3] = assay: microbe, parasite or virus in culture; conditions: Staphylococcus aureus, ATTC25923, read-out: Sau MIC
M. tuberculosis H37Rv = assay: microbe, parasite or virus in culture; format: cell-based, Mycobacterium tuberculosis

Sequence of Mtb gyrase (P9WG45 whole entry, looked up): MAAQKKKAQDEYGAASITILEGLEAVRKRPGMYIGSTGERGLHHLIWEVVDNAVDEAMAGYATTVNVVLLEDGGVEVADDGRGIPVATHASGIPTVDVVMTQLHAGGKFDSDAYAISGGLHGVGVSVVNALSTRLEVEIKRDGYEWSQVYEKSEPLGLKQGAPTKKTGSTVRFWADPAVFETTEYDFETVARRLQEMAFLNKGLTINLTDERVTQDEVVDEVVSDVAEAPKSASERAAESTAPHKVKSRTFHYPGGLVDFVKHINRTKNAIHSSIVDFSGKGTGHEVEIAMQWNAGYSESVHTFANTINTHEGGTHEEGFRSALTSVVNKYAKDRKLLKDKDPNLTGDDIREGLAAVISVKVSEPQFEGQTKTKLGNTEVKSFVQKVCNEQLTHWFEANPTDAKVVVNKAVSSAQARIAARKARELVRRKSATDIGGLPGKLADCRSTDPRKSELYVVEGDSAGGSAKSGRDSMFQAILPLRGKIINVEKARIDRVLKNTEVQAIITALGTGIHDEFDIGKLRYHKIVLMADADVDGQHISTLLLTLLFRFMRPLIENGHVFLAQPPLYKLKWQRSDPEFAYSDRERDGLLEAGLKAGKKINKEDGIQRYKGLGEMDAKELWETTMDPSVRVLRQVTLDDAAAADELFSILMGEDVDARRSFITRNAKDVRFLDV
Sequence of Mtb gyrase (P9WG47 whole entry, looked up): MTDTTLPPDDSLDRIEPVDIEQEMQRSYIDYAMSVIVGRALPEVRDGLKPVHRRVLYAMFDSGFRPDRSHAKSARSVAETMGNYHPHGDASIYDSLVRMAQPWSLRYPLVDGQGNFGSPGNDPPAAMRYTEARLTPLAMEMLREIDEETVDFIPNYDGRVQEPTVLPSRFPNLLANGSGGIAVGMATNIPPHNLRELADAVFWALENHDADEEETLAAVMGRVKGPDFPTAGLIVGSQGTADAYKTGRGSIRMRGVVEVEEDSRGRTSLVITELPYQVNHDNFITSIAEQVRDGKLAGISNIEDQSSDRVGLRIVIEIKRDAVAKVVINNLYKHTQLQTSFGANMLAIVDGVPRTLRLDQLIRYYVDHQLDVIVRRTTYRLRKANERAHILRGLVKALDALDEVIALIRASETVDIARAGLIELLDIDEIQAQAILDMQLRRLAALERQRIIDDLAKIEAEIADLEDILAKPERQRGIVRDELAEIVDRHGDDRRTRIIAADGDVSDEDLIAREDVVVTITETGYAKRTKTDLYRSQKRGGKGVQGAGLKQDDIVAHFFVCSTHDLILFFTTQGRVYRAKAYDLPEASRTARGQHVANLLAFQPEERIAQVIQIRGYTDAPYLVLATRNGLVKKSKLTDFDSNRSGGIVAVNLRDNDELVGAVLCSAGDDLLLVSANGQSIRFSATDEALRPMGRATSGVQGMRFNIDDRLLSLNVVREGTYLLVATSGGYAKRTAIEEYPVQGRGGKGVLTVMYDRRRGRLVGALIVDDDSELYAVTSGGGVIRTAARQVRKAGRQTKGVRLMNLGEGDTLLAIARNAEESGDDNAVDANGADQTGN

Molecule	Ratio (WT/hypomorph) MIC [2]	Ratio (WT/hypomorph) MIC50 [2]	MIC (S. aureus ATTC 25923 [3])	other results
C[C@@H]1CN2c3c(cc4c(N5CC[C@H](O)C5)noc4c3F)CC3(C(=O)NC(=O)NC3=O)[C@H]2[C@H](C)O1 [Compound 8, (2R,4S,4aS)-11-fluoro-8-((S)-3-hydroxypyrrolidin-1-yl)-2,4-dimethyl-1,2,4,4a-tetrahydro-2’H,6H-spiro[isoxazolo[4,5-g][1,4]oxazino[4,3-a]quinoline-5,5’-pyrimidine]-2’,4’,6’(1’H,3’H)-trione]	2.5	3.6		fold less active against S. aureus than zoliflodacin (S. aureus ATTC 25923 [1]): > 200 fold; Mtb gyrase IC50 fold higher (less potent) than moxifloxacin (Mtb gyrase): ≤ 2 fold
C[C@@H]1CN2c3c(cc4c(N5C[C@@H](O)[C@H](O)C5)noc4c3F)CC3(C(=O)NC(=O)NC3=O)[C@H]2[C@H](C)O1 [Compound 10, (2R,4S,4aS)-8-((3R,4R)-3,4-dihydroxypyrrolidin-1-yl)-11-fluoro-2,4-dimethyl-1,2,4,4a-tetrahydro-2’H,6H-spiro[isoxazolo[4,5-g][1,4]oxazino[4,3-a]quinoline-5,5’-pyrimidine]-2’,4’,6’(1’H,3’H)-trione]	2.1	2.9		Mtb gyrase IC50 fold higher (less potent) than moxifloxacin (Mtb gyrase): ≤ 2 fold
C[C@@H]1CN2c3c(cc4c(N5CCC[C@@H](O)C5)noc4c3F)CC3(C(=O)NC(=O)NC3=O)[C@H]2[C@H](C)O1 [Compound 22, (2R,4S,4aS)-11-fluoro-8-((R)-3-hydroxypiperidin-1-yl)-2,4-dimethyl-1,2,4,4a-tetrahydro-2’H,6H-spiro[isoxazolo[4,5-g][1,4]oxazino[4,3-a]quinoline-5,5’-pyrimidine]-2’,4’,6’(1’H,3’H)-trione]			94 µM (≈ 45.8 µg/mL)	
C[C@@H]1CN2c3c(cc4c(OC[C@H]5CCC(=O)N5)noc4c3F)CC3(C(=O)NC(=O)NC3=O)[C@H]2[C@H](C)O1 [Compound 24, (2R,4S,4aS)-11-fluoro-2,4-dimethyl-8-(((R)-5-oxopyrrolidin-2-yl)methoxy)-1,2,4,4a-tetrahydro-2’H,6H-spiro[isoxazolo[4,5-g][1,4]oxazino[4,3-a]quinoline-5,5’-pyrimidine]-2’,4’,6’(1’H,3’H)-trione]			> 125 µM	
C[C@@H]1CN2c3c(cc4c(OC[C@@H]5COC(=O)N5)noc4c3F)CC3(C(=O)NC(=O)NC3=O)[C@H]2[C@H](C)O1 [Compound 28, (2R,4S,4aS)-11-fluoro-2,4-dimethyl-8-(((R)-2-oxooxazolidin-4-yl)methoxy)-1,2,4,4a-tetrahydro-2’H,6H-spiro[isoxazolo[4,5-g][1,4]oxazino[4,3-a]quinoline-5,5’-pyrimidine]-2’,4’,6’(1’H,3’H)-trione]			63 µM (≈ 31.7 µg/mL)	
C[C@@H]1CN2c3c(cc4c(N5CC[C@H](O)C5)noc4c3F)CC3(C(=O)NC(=O)NC3=O)[C@H]2[C@H](C)N1C#N [Compound 40, (2R,4S,4aS)-11-fluoro-8-((S)-3-hydroxypyrrolidin-1-yl)-2,4-dimethyl-2’,4’,6’-trioxo-1,1’,2,3’,4,4a,4’,6’-octahydro-2’H,3H,6H-spiro[isoxazolo[4,5-g]pyrazino[1,2-a]quinoline-5,5’-pyrimidine]-3-carbonitrile]	2.0	3.1	> 125 µM	pIC50 (Mtb gyrase): 4.72
(2R,4S,4aS)-11-fluoro-2,4-dimethyl-8-((S)-3-(methylamino)pyrrolidin-1-yl)-1,2,4,4a-tetrahydro-2’H-spiro[isoxazolo[5’,4’:4,5]benzo[1,2-b][1,4]oxazino[4,3-d][1,4]oxazine-5,5’-pyrimidine]-2’,4’,6’(1’H,3’H)-trione [Compound 17]				Mtb MIC (M. tuberculosis H37Rv): 63 µM; fold higher Mtb MIC compared to 8 (M. tuberculosis H37Rv): 9 to16 fold; Sau MIC (S. aureus ATTC 25923 [1]): 125 µM
